US9125835B2, “Synergistic combinations to reduce particle dose for targeted treatment of cancer and its metastases” (priority 2010, dated 2015)

How the values were obtained:
[1] = In vivo CPT plasma concentrations after single IV injection; conditions: IV injection of free CPT (2 mg/kg)
Protocol: Values are reported as mean ±SD.
(§1) This was determined by preparing PEGylated 6 μm polystyrene MPs with three copies of the norvaline (Nva) α-amino acid prodrug of CPT. […] Anti-cancer efficacy was evaluated in an orthotopic rat lung cancer model and compared to a bolus injection of CPT.

[2] = test system: A549 cell; assay: Anti-cancer efficacy in orthotopic rat lung cancer model (A549 cell inoculation); format: in vivo, nude rats; conditions: IV every 3 days for 27 days; free CPT 2 mg/kg, CPT-Nva-MPs 0.2 mg/kg CPT
Protocol: as §1
The treatment was conducted every 3 days for 27 days. The day after the last treatment, all animals were euthanized, and organs (lung, heart, […], spleen and […]) were dissected and weighed. The organs were fixed in 10% neutral buffered formalin for H & E staining.

[3] = test system: caspase 3/7; conditions: A549 cells, 24 hours; 1 μM paclitaxel alone or with 1 mM R-ALA
Protocol: Cell viability (FIG. 11—left) and caspase 3/7 activation (apoptosis) (FIG. 11—right) of A549 cells were evaluated in response to a low dose (˜EC5-EC20) of paclitaxel alone (1 μM), low dose paclitaxel +R-ALA (1 mM) or a solvent control (0.1% DMSO). Cell viability was determined with AlamarBlue® assay. Caspase 3/7 activation was determined as a measure of apoptosis using a fluorometric assay kit (Biovision, Mountain View, Calif.). A549 cells were treated with solvent control (0.1% DMSO), 1 μM paclitaxel, and 1 μM paclitaxel+1 mM R-ALA for 24 hours.

Structure (SMILES)	systemic exposure (CPT plasma) [1]	areas of lung cancer versus untreated animals [2]	caspase 3/7 activation relative to controls [3]
CC[C@@]1(O)C(=O)OCc2c1cc1n(c2=O)Cc2cc3ccccc3nc2-1 [free CPT, camptothecin]	high but short-lived systemic exposures	smaller areas of lung cancer	
CC(=O)O[C@H]1C(=O)[C@@]2(C)[C@H]([C@H](OC(=O)c3ccccc3)[C@]3(O)C[C@H](OC(=O)[C@H](O)[C@@H](NC(=O)c4ccccc4)c4ccccc4)C(C)=C1C3(C)C)[C@]1(OC(C)=O)CO[C@@H]1C[C@@H]2O [paclitaxel]			1.5 fold
